Consider one molecule from US5457097A, “Androst-4-eno[4,5-b]pyrrole derivatives” (Farmitalia Carlo Erba S.r.l., priority 1992, dated 1995).

The structures appear in SMILES notation.

The assay addresses T1, human placental aromatase (Homo sapiens, UniProt P11511).
T1 construct: utilizes the human placental microsomal fraction as enzyme source; from tissue; host or cells: human placenta, microsomal fraction
T1 sequence (P11511 1-503): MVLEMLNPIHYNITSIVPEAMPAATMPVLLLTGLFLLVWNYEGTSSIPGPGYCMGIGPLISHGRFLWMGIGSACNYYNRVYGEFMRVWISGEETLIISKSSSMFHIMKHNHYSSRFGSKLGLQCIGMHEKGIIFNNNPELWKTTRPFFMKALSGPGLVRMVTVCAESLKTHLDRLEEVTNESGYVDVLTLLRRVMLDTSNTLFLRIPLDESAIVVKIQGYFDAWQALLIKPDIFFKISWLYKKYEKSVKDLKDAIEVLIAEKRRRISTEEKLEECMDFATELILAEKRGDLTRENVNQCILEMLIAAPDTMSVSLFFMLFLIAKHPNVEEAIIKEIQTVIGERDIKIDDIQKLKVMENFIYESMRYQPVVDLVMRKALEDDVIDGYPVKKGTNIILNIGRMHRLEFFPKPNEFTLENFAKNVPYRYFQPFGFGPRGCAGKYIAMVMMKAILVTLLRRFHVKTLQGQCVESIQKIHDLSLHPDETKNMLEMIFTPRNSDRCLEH
The experiment in a line: in vitro aromatase inhibition test (Thompson and Siiteri), 3H2O release from [1β-3H]androstenedione. Type of assay: biochemical. Particulars: human placental microsomal fraction; [1β-3H]androstenedione 50 nM, NADPH, 15 min incubation at 37° C.; read-out: concentration producing 50% inhibition of human placental aromatase (IC50). On the procedure:
The concentration of each compound required to reduce control aromatase activity by 50% (IC50) was determined by plotting % inhibition versus log of inhibitor concentration.

Regarding `C[C@]12C=CC(=O)c3[nH]cc(c31)C[C@@H]1[C@@H]2CC[C@]2(C)C(=O)CC[C@@H]12` [3,17-dioxo-1'H-androsta-1,4-dieno[4,5-b]pyrrole], the IC50 came to 120 nM.
